Values of other authors in US4020157A, “Shortened analogs of somatostatin” (Ayerst McKenna and Harrison Ltd., priority 1975, dated 1977).

Settings: reported by D. Sarantakis et al.

## [Ala^3,14 ]-somatostatin (AGAKNFFWKTFTSA; Somatostatin-14; UniProt P61278 103-116, looked up, variant C3A C14A) [somatostatin analog synthesized by solid phase methods (Sarantakis et al.)]
  activity as % of the potency of somatostatin: about 0.01%
